This note sets out measurements from patent US20210230526A1, “Cell enclosure device and use for same” (National Agriculture and Food Research Organization, priority 2016, published 2021).

In the data set the test system is HepG2 cells. Kind of data set: Metabolism of model drug (fluorescein diacetate) by HepG2 cell hepatic tissue-type chip and excretion and accumulation of metabolites to bile canaliculus-like structure. It is filed as in vitro ADME, human. Particulars: for distribution of fluorescein metabolized by HepG2 cells (green fluorescence): 1 hour uptake, after washing twice. The procedure:
(1) A culture medium containing fluorescein diacetate (FD) as a model drug at a concentration of 250 μg/mL was prepared, and 5 mL thereof was poured into a dish (60 mm in diameter ).
(2) Next, the hepatic tissue-type chip on day 7 of culturing produced using HepG2 cells in Example 1 was immersed in the FD-containing culture medium prepared in (1) and cultured for 1 hour, such that the FD was taken into the cells.
(3) Next, the chip was transferred into a new dish (diameter: 60 mm), into which 5 mL of Hank's Balanced Salt Solution (HBSS) was poured, and washed.
(4) Next, the hepatic tissue-type chip was transferred into a new dish (diameter 60 mm ) into which 5 mL of a fresh culture medium was poured, immersed in the culture medium, and cultured for 1 hour. The discharging of fluorescein in the cells after 1 hour was confirmed by observation with a phase contrast microscope and a fluorescence microscope (refer to FIG. 8(A) to FIG. 8(C)).
(1) HBSS containing fluorescein diacetate (FD) as a model drug at a concentration of 25 μg/mL was prepared, and 5 mL thereof was poured into a dish (60 mm in diameter).
(2) Next, on day 32 of culturing, the hepatic tissue-type chip produced using HepG2 cells in Example 3 was immersed in the FD-containing HBSS prepared in (1) and cultured for 1 hour such that the FD was taken into the cells.
(3) Next, the result was transferred into a new dish (diameter 60 mm) into which 5 mL of HBSS was poured, and washed.
(4) Next, the hepatic tissue-type chip was transferred into a new dish (diameter 60 mm) into which 5 mL of fresh HBSS was poured, immersed in HBSS, and cultured for 1 hour. The discharge of fluorescein in the cells after 1 hour was confirmed by observation with a phase contrast microscope and a fluorescence microscope (refer to FIG. 12A (phase contrast microscope image) and FIG. 12B (fluorescence microscope image)). […]

`O=C1OC2(c3ccc(O)cc3Oc3cc(O)ccc32)c2ccccc21` [fluorescein]: the “excretion of fluorescein from the cells” value is, setting by setting: (Example 2, chip on day 7 of culturing, 1 hour further culture in fresh culture medium after washing) “excreted and accumulated in the bile canaliculus-like structure”; (Example 4, chip on day 32 of culturing, 1 hour further culture in fresh HBSS after washing) “excreted and accumulated in the bile canaliculus-like structure”; (Example 10, chip on day 35 of culturing, 1 hour further culture in fresh HBSS after washing) “excreted and accumulated in the bile canaliculus-like structure”. Besides, the “distribution of fluorescein metabolized by HepG2 cells (green fluorescence)” value was “uniformly distributed in the cytoplasm” (Example 2, chip on day 7 of culturing, FD 250 μg/mL in culture medium); “uniformly distributed in the cytoplasm” (Example 4, chip on day 32 of culturing, FD 25 μg/mL in HBSS); “uniformly distributed in the cytoplasm” (Example 10, chip on day 35 of culturing, FD 25 μg/mL in HBSS).
